Assays:
[1] = Cytotoxicity to LLC-MK2 host cells (MTT); assay type: cell-based; details: rhesus monkey, LLC-MK2 cells (kidney fibroblasts); for viability at 120 h, 50 µM: screening at 50 μM
Method: (§1) LLC-MK2 kidney fibroblasts (ATCC) and RAW 264.7 macrophages (ATCC) were cultivated in culture flasks in complete DMEM with 5% FBS at 37 °C in 5% CO2. The LLC-MK2 cell monolayer was detached by treatment with trypsin-EDTA 0.05% for 5 min at 37 °C. The RAW cell monolayer was detached mechanically. In both cases, the cells were centrifuged at 480× g for 6 min and resuspended in complete DMEM with 5% FBS, and the cell density was determined by counting with trypan-blue dye exclusion on Neubauer chambers before use.
(§2) LLC-MK2 cells were seeded in a 96-well microplate (1.0 × 10^4 cells per well) in complete DMEM with 5% FBS (120 µL per well). After incubation for 24 h at 37 °C in 5% CO2, the medium was renewed, and compounds were added at a range of concentrations in triplicate (50 μM or 100–1 μM). Untreated cells and cells treated with DMEM and 10% DMSO were used as negative and positive controls, respectively. Vehicle control containing DMEM and 0.3% DMSO was maintained for comparison. After incubation for 120 h at 37 °C in 5% CO2, the medium was renewed, and MTT salt solution in PBS was added (3.0 mM, 20 µL per well). After incubation for 2 h at 37 °C in 5% CO2, the supernatant was removed, and MTT formazan was dissolved in DMSO (150 µL per well). Absorbance was measured using a microplate reader at 570 nm.
(§3) The percent cell or parasite viability was calculated by the formula: % viability = [(A − P)/(N − P)] × 100, A = absorbance of specific well, P = positive control, N = negative control. Determination of half-maximal effective concentrations (EC50), calculated by logarithmic regression, and significance analysis (p < 0.05), using ANOVA and Dunnett’s test, by GraphPad Prism 7.0 software. The results are expressed as the mean and standard deviation (SD) of three independent experiments.

LLC-MK2 cells = assay: Cytotoxicity to LLC-MK2 host cells (MTT); assay type: cell-based; details: Macaca mulatta, LLC-MK2; 120 h, MTT
Method: as §1, §2, §3

RAW 264.7 cells = assay: Cytotoxicity to RAW 264.7 cells (MTT); assay type: cell-based, murine; details: Mus musculus, RAW264.7; 48 h, MTT; read-out: EC50 RAW
Method: as §1
RAW 264.7 cells were seeded in a 96-well microplate (2.0 × 10^4 cells per well) in complete DMEM with 5% FBS (120 µL per well). After incubation for 24 h at 37 °C in 5% CO2, the medium was renewed, and compounds were added at a range of concentrations in triplicate (100–1 μM). Untreated cells and cells treated with DMEM and 10% DMSO were used as negative and positive controls, respectively. Vehicle control containing DMEM and 0.3% DMSO was maintained for comparison. After incubation for 48 h at 37 °C in 5% CO2, the medium was renewed, and an MTT solution in PBS was added (3.0 mM, 20 µL per well). After incubation for 2 h at 37 °C in 5% CO2, the supernatant was removed, and MTT formazan was dissolved in DMSO (150 µL per well). Absorbance was measured using a microplate reader at 570 nm.
as §3

[2] = Cytotoxicity to BALB/c mouse total splenocytes (MTT); assay type: cell-based; details: male; for viability at 48 h, 100 µM / viability at 48 h, 0.4 µM / viability at 48 h, 1 µM / viability at 48 h, 2.6 µM / viability at 48 h, 6.4 µM / viability at 48 h, 16 µM / viability at 48 h, 40 µM: total splenocytes (primary); for EC50 at 48 h: primary total splenocytes, MTT, read-out: EC50 murine splenocytes
Method: BALB/c mouse total splenocytes were harvested from male mice between 6–8 weeks old. After euthanasia, the spleens were removed and macerated in DMEM. After centrifugation, the cells were treated with hemolytic ACK buffer at 37 °C for 5 min. […] After incubation for 48 h at 37 °C in 5% CO2, cell viability was determined after the addition of 20 µL per well of a solution containing MTT salt (3.0 mM) and phenazine metasulphate (0.72 mM). After further incubation for 1 h at 37 °C, the medium was removed, and DMSO was added to dissolve the dark-blue formazan crystals formed by MTT reduction. Absorbance was measured on a microplate reader at 570 nm.
as §3

[3] = test system: T. cruzi amastigotes (Tulahuen C2C4 LacZ strain); assay: microbe, parasite or virus in culture; assay type: cell-based, Trypanosoma cruzi; details: for viability at 50 µM: LLC-MK2, 120 h; for EC50: in LLC-MK2, 120 h, read-out: EC50 T. cruzi intracellular amastigotes; for S.I. (selectivity index): host cell/parasite EC50 ratio, LLC-MK2/T. cruzi
Method: To a monolayer of 1.0 × 10^7 LLC-MK2 cells in a 150 cm^2 culture flask were added 5.0 × 10^7 trypomastigotes of T. cruzi expressing the […] (Tulahuen C2C4 LacZ) in complete DMEM with 2.5% FBS. The infection was allowed to occur for 24 h, the supernatant was removed, and the cell monolayer was washed with PBS. Complete DMEM with 2.5% FBS was renewed every 2 days up to the sixth day after infection. Trypomastigote forms were collected daily from the supernatant between days 7 and 12 after infection, enriched by differential centrifugation (1500× g for 10 min, 5580× g for 20 min), and resuspended in complete DMEM with 5% FBS. Parasite density was determined by counting the mobile trypomastigotes on Neubauer chambers before use.
. The medium was renewed, and trypomastigote forms of T. cruzi (Tulahuen C2C4 LacZ strain, 2.0 × 10^5 parasites per well) were added. After incubation for 24 h at 37 °C in 5% CO2, the cell monolayer was washed with PBS to remove noninternalized parasites. DMEM without phenol red and 5% FBS was added, and infected cells were treated with compounds at a range of concentrations in triplicate (50 μM or 100–1 μM). Untreated infected cells and noninfected LLC-MK2 cells were used as negative and positive controls, respectively. Vehicle control containing DMEM without phenol red and 0.3% DMSO was maintained for comparison. After incubation for 120 h at 37 °C in 5% CO2, a solution containing […] and 0.8% IGEPAL CA-630 in PBS (30 µL per well), followed by further incubation for 2 h at 37 °C in 5% CO2. Absorbance was measured using a microplate reader at 570 nm.
as §3

[4] = 100 μM, 48 h, compared to the untreated control (Table S1)
[5] = Trypanosoma cruzi, TULAHUEN, screening at 50 μM, 120 h, compared with untreated controls
[6] = Table S2 dose-dependent, 100 µM

SMILES | viability at 120 h, 50 µM [1] [%] | EC50 (LLC-MK2 cells) [µM] | EC50 (RAW 264.7 cells) [µM] | viability at 48 h, 100 µM [2, 4] [%] | viability at 50 µM [3, 5] [%] | EC50 ([3]; Trypanosoma cruzi, TULAHUEN) [µM] | S.I. (selectivity index) [3] | melting point [°C] | EC50 at 48 h ([2]; 48 h) [µM] | viability at 48 h, 0.4 µM ([2]; Table S2 dose-dependent) [%] | viability at 48 h, 1 µM ([2]; Table S2 dose-dependent) [%] | viability at 48 h, 2.6 µM ([2]; Table S2 dose-dependent) [%] | viability at 48 h, 6.4 µM ([2]; Table S2 dose-dependent) [%] | viability at 48 h, 16 µM ([2]; Table S2 dose-dependent) [%] | viability at 48 h, 40 µM ([2]; Table S2 dose-dependent) [%] | viability at 48 h, 100 µM [2, 6] [%] | % Viability T. cruzi amastigotes ([3]; screening at 50 μM, 120 h, compared with untreated controls, 50 µM) [%] | viability at 120 h, 1 µM ([1]; host cells at 1.0 μM, read-out: host cell viability) [%] | lowest concentration with significant amastigote growth inhibition compared with host cell toxicity ([3]; T. cruzi vs LLC-MK2, p < 0.05) [µM] | viability at 1 µM ([3]; Trypanosoma cruzi, TULAHUEN, LLC-MK2, T. cruzi amastigotes at 1.0 μM, read-out: amastigote viability) [%]
COc1cc(/C=C/c2nc(-c3ccccc3)no2)cc(OC)c1OC [Compound 12, (E)-3-phenyl-5-[2-(3,4,5-trimethoxyphenyl)vinyl]-1,2,4-oxadiazole] | 88.2 ± 5.2 | > 100 | > 100 | 72.1 ± 6.5 | 37.8 ± 2.6 | 22.5 ± 3.7 | >4.5 | – | – | – | – | – | – | – | – | – | – | – | – | –
C(=C\c1nc(-c2ccccc2)no1)/c1cccnc1 [Compound 15, (E)-3-phenyl-5-[2-pyridyn-3-yl-vinyl]-1,2,4-oxadiazole] | – | > 100 | – | – | 33.8 | 33.8 ± 2.3 | >3.0 | 107 to 110 | 52.2 ± 4.51 | 94.5 ± 9.1 | 92.7 ± 4.1 | 86.3 ± 7.5 | 90.2 ± 10.7 | 77.7 ± 4.8 | 63.1 ± 5.8 | 29.5 ± 1.6 | 21.5 ± 2.2 | – | – | –
COc1cc(/C=C/c2nc(-c3cc(OC)c(OC)c(OC)c3)no2)cc(OC)c1OC [Compound 23, (E)-3-(3,4,5-trimethoxyphenyl)-5-[2-(3,4,5-trimethoxyphenyl)-vinyl]-1,2,4-oxadiazole] | 64.1 ± 4.4 | 78 ± 4.7 | > 100 | – | 8.6 ± 1.2 | 2.9 ± 0.2 | 26.7 | 118 to 120 | 33.3 ± 2.83 | 97.3 ± 3.3 | 94.9 ± 4 | 95 ± 4.4 | 84.6 ± 6.7 | 69.5 ± 6.4 | 43.4 ± 4.2 | 14.1 ± 3.5 | – | 93 ± 4.4 | 1.0 | 81.3 ± 6.2
COc1cc(-c2noc(/C=C/c3ccc4c(c3)OCO4)n2)cc(OC)c1OC [Compound 24, (E)-3-(3,4,5-trimethoxyphenyl)-5-[2-(3,4-methylenedioxy-phenyl)vinyl]-1,2,4-oxadiazole] | 55.9 ± 9.3 | 53.4 ± 2.6 | 58.8 ± 6.1 | 72.8 ± 4.2 | 42.2 ± 2.7 | 28.7 ± 3.1 | 1.9 | 177 to 180 | – | – | – | – | – | – | – | – | – | – | – | –
